Converted amounts (≈) assume the structure as drawn.
Key:
Assay in all cases: Clonogenic assay, colony formation of tumor stem cells from xenografts
Assay type in all cases: cell-based, human
MAXF 1384 = conditions: Breast, xenograft MAXF 1384, colony formation
Method: (§1) Using various human cancer xenografts in vitro, the concentrations of compound B which inhibit formation of tumor colonies of tumor stem cells by 50% (IC50) and 70% (IC70) are determined in a clonogenic assay. Specifically, each solid tumor of bladder cancer (BXF 1036 and BXF 1299), cervical cancer (CEXF 633 and CEXF 773), colic cancer (CXF 1103, CXF 158, CXF 1729, CXF 264 and CXF 280), gastric cancer (GXF 251 and GXF 97), head and neck cancer (HNXF 536), liver cancer (LIXF 575), non small cell lung cancer comprising adeno, squamous epithelium and large cell carcinoma (LXFA 1012, LXFA 289, LXFA 297, LXFA 526, LXFA 592, LXFA 629, LXFA 677, LXFE 409, LXFL 1072, LXFL 430LX and LXFL 529), small cell lung cancer (LXFS 650), mammary cancer (MAXF 1162, MAXF 1384, MAXF 401, MAXF 449, MAXF 574, MAXF 583, MAXF 713 and MAXF 857), melanoma (MEXF 1341, MEXF 462, MEXF 535 and MEXF 989), ovary cancer (OVXF 899), pancreatic cancer (PAXF 546 and PAXF 736), prostate cancer (DU-145 and PC3M), pleuramesothelioma (PXF 1752), renal cancer (RXF 1220, RXF 1393, RXF 393, RXF 631 and RXF 944LX), and sarcoma (SXF 1301 and SXF 463) engrafted on RPMI nu/nu thymus aplastic nude mice were explanted, disaggregated by mincing and enzymatic digestion for 50 minutes using 125 U/mL DNAse I, 41 U/mL collagenase IV, 100 U/ml hyaluronidase III, and 1 U/mL dispase I, and passed through sieves of 200 µm and 50 µm mesh size and washed twice with sterile PBS-buffer to remove cell aggregated from single cells. The clonogenic assay was performed in a 24 multiwell format. Each of the resulting single cell suspensions was added at a density of 2·10^4 to 6·10^4 cells per well to 0.2 ml of Iscove's Modified Dulbecco's Medium (IMDM) containing 20% fetal calf serum and 0.01% gentamicin supplemented with 0.4% (w/v) agar, and plated onto a bottom layer consisting of the same culture medium containing 0.75% (w/v) agar. After 24 hours IMDM containing 20% fetal calf serum and 0.01 % gentamicin, together with a test compound, was added there to. Then, the plate was incubated at 37°C for 10 to 20 days in a humidified atmosphere of air containing 7.5% CO2. Within this period, in vitro tumor growth led to the formation of colonies with a diameter of > 50µm. Colony counts were performed with an automatic image analysis system (OMNICON 3600). 24 hours prior to evaluation, vital colonies were stained with a vital staining dye. Therefore, 100 µl of a sterile aqueous solution of 2-(4-iodophenyl)-3-(4-nitrophenyl)-5-phenyltetrazolium chloride (1 mg/ml) were added to each well of the plate, and plates were incubated for 24 hours at 37°C in a humidified atmosphere of air containing 7.5% CO2. Inhibition of colony formation was expressed as test versus untreated control (T/C-value [%]). IC50 and IC70 values were determined by plotting compound concentration versus cell viability. Table 3: Inhibition of Colony Formation of Tumor Stem Cells by griseusin derivative B

RXF 393 = conditions: Kidney, xenograft RXF 393, colony formation
Method: as §1

LXFE 409 = conditions: Lung, non small cell, xenograft LXFE 409, colony formation
Method: as §1

MEXF 535 = conditions: Melanoma, xenograft MEXF 535, colony formation
Method: as §1

MAXF 401 = conditions: Breast, xenograft MAXF 401, colony formation
Method: as §1

LXFA 297 = conditions: Lung, non small cell, xenograft LXFA 297, colony formation
Method: as §1

CXF 158 = conditions: Colon, xenograft CXF 158, colony formation
Method: as §1

PAXF 546 = conditions: Pancreas, xenograft PAXF 546, colony formation
Method: as §1

DU-145 = conditions: Prostate, xenograft DU-145, colony formation
Method: as §1

LXFA 677 = conditions: Lung, non small cell, xenograft LXFA 677, colony formation
Method: as §1

MAXF 583 = conditions: Breast, xenograft MAXF 583, colony formation
Method: as §1

BXF 1036 = conditions: Bladder, xenograft BXF 1036, colony formation
Method: as §1

LXFA 1012 = conditions: Lung, non small cell, xenograft LXFA 1012, colony formation
Method: as §1

HNXF 536 = conditions: Head and Neck, xenograft HNXF 536, colony formation
Method: as §1

LXFA 526 = conditions: Lung, non small cell, xenograft LXFA 526, colony formation
Method: as §1

OVXF 899 = conditions: Ovary, xenograft OVXF 899, colony formation
Method: as §1

MAXF 713 = conditions: Breast, xenograft MAXF 713, colony formation
Method: as §1

LXFS 538 = conditions: Lung, small cell, xenograft LXFS 538, colony formation

Structure (SMILES): C[C@@H]1CC(=O)[C@@H](O)[C@]2(O1)O[C@@H]1CC(=O)O[C@@H]1C1=C2C(=O)c2c(O)cccc2C1=O [Compound B, 4'-dehydro-deacetylgriseusin A]
- IC50 (MAXF 1384): 0.606 µg/mL (≈ 1.51 µM)
- IC70 (MAXF 1384): 0.750 µg/mL (≈ 1.87 µM)
- IC50 (RXF 393): 0.150 µg/mL (≈ 0.375 µM)
- IC70 (RXF 393): 0.212 µg/mL (≈ 0.53 µM)
- IC50 (LXFE 409): 1.732 µg/mL (≈ 4.33 µM)
- IC70 (LXFE 409): 2.249 µg/mL (≈ 5.62 µM)
- IC50 (MEXF 535): 0.055 µg/mL (≈ 0.137 µM)
- IC70 (MEXF 535): 0.094 µg/mL (≈ 0.235 µM)
- IC50 (MAXF 401): 0.478 µg/mL (≈ 1.19 µM)
- IC70 (MAXF 401): 0.782 µg/mL (≈ 1.95 µM)
- IC50 (LXFA 297): 1.461 µg/mL (≈ 3.65 µM)
- IC70 (LXFA 297): 2.179 µg/mL (≈ 5.44 µM)
- IC50 (CXF 158): 0.126 µg/mL (≈ 0.315 µM)
- IC70 (CXF 158): 0.358 µg/mL (≈ 0.894 µM)
- IC50 (PAXF 546): 0.168 µg/mL (≈ 0.42 µM)
- IC70 (PAXF 546): 0.420 µg/mL (≈ 1.05 µM)
- IC50 (DU-145): 1.086 µg/mL (≈ 2.71 µM)
- IC70 (DU-145): 1.644 µg/mL (≈ 4.11 µM)
- IC50 (LXFA 677): 0.974 µg/mL (≈ 2.43 µM)
- IC70 (LXFA 677): 8.063 µg/mL (≈ 20.1 µM)
- IC50 (MAXF 583): 0.078 µg/mL (≈ 0.195 µM)
- IC70 (MAXF 583): 0.195 µg/mL (≈ 0.487 µM)
- IC50 (BXF 1036): 1.743 µg/mL (≈ 4.35 µM)
- IC70 (BXF 1036): 2.271 µg/mL (≈ 5.67 µM)
- IC50 (LXFA 1012): 0.442 µg/mL (≈ 1.1 µM)
- IC70 (LXFA 1012): 0.631 µg/mL (≈ 1.58 µM)
- IC50 (HNXF 536): 0.350 µg/mL (≈ 0.874 µM)
- IC70 (HNXF 536): 0.547 µg/mL (≈ 1.37 µM)
- IC50 (LXFA 526): 0.300 µg/mL (≈ 0.749 µM)
- IC70 (LXFA 526): 0.512 µg/mL (≈ 1.28 µM)
- IC50 (OVXF 899): 0.468 µg/mL (≈ 1.17 µM)
- IC70 (OVXF 899): 0.731 µg/mL (≈ 1.83 µM)
- IC50 (MAXF 713): 0.498 µg/mL (≈ 1.24 µM)
- IC70 (MAXF 713): 0.700 µg/mL (≈ 1.75 µM)
- IC50 (LXFS 538): 0.307 µg/mL (≈ 0.767 µM)
- IC70 (LXFS 538): 0.502 µg/mL (≈ 1.25 µM)

From patent publication EP1650209A1, “Griseusin derivatives and their use as antitumor agents” (Oncotest GmbH, priority 2004, dated 2006)
